Measurements published in patent publication US20240124399A1, “NOVEL INDOLE DERIVATIVE, AND USE THEREOF FOR TREATING DISEASES RELATED TO ADVANCED GLYCATION END PRODUCTS” (METACEN THERAPEUTICS, priority 2021, published 2024).

Tests used:
[1] = Methylglyoxal (MGO) trapping ability: fluorescence intensity of reaction product; format: biochemical; conditions: compound 1.0 mM in MGO+PBS pH 7.4, 37° C., 1 day; ex 355 nm / em 460 nm; 10×10^3 or more = ability to trap MGO
Description: Methylglyoxal (MGO) is a main precursor of advanced glycation end products that cause complications due to diabetes mellitus. Successful trapping of methylglyoxal (MGO) can inhibit the production of advanced glycation end products. Therefore, the objective of this experimental example was to confirm whether the compound of the present invention has the ability to trap methylglyoxal (MGO), a precursor before the production of advanced glycation end products.
A mixture was prepared by adding methylglyoxal (MGO) to phosphate buffered saline (PBS, Cat no. 10010023, pH 7.4). The mixture (MGO+PBS) was treated with the compound of the above example at a concentration of 1.0 mM and then cultured at 37° C. for 1 day. The fluorescence intensity of the reaction product was measured at an excitation wavelength of 355 nm and an emission wavelength of 460 nm using a VICTOR™X3 multilabel plate reader.
The higher the fluorescence intensity measured from the reaction product, the higher the ability of the compound to trap methylglyoxal. In addition, in this experimental example, when the fluorescence intensity was 10×10^3 or more, it was determined that the compound had the ability to trap methylglyoxal.

[2] = Methylglyoxal (MGO) trapping ability: free MGO concentration by HPLC; format: biochemical; conditions: for MGO concentration on day 1 (free MGO) / MGO concentration on day 7 (free MGO): compound 1:1 with MGO in PBS pH 7.4, 37° C.; for MGO concentration on day 1 (free MGO): day 1, HPLC; for MGO concentration on day 7 (free MGO): day 7, HPLC
Description: The objective of this experimental example was to confirm whether the compound of the present invention has the ability to trap methylglyoxal (MGO) by analyzing the concentration of free methylglyoxal (MGO) by high performance liquid chromatography (HPLC).
Specifically, a mixture was prepared by adding methylglyoxal (MGO) to phosphate buffered saline (PBS, Cat no. 10010023, pH 7.4). […]

## CCCC(=O)OC[C@@H](N)Cc1c[nH]c2ccc(OC(=O)CCC)cc12 [Compound 8, (S)-2-amino-3-(5-(butyryloxy)-1H-indol-3-yl)propyl butyrate]
[1]
  Fluorescence intensity on day 1 (×10^3): 21.74 ± 0.50 ×10^3
[2]
  MGO concentration on day 1 (free MGO): 501.09 µM
  MGO concentration on day 7 (free MGO): 412.65 µM

## CCCC(=O)N[C@H](CO)Cc1c[nH]c2ccc(OC(=O)CCC)cc12 [Compound 9, (S)-3-(2-butyramido-3-hydroxypropyl)-1H-indol-5-yl butyrate]
[1]
  Fluorescence intensity on day 1 (×10^3): 0.75 ± 0.30 ×10^3
[2]
  MGO concentration on day 1 (free MGO): 551.993 µM
  MGO concentration on day 7 (free MGO): 403.462 µM

## NCCCCNCCCNC(=O)OC[C@@H](N)Cc1c[nH]c2ccc(O)cc12 [Compound 10, (S)-2-amino-3-(5-hydroxy-1H-indol-3-yl)propyl (3-((4-aminobutyl)amino)propyl)carbamate]
[1]
  Fluorescence intensity on day 1 (×10^3): 223.01 ± 3.74 ×10^3
[2]
  MGO concentration on day 1 (free MGO): 444.11 µM
  MGO concentration on day 7 (free MGO): 269.28 µM
[2]; day 1 after incubation, control group PBS+MGO
  concentration of free methylglyoxal relative to the control group, day 1: about 12%
[2]; day 7 after incubation, control group PBS+MGO
  concentration of free methylglyoxal relative to the control group, day 7: about 38%
